# Measured values: patent publication US5468754A, “11,7 substituted camptothecin derivatives and formulations of 11,7 substituted camptothecin derivatives and methods for uses thereof” (priority 1994, dated 1995)
# Like-named read-outs stand apart in the source and are kept apart here.
# Key:
# [1] = cited from earlier work
# P388 tumor = settings: intermittent bolus (days 1, 5, and 9), intraperitoneal; mice; cited from earlier work
# [2] = system: Topoisomerase I, purified from human colon carcinoma cells; settings: cited from earlier work
# [3] = cited from earlier work; remark: listed apart in the source
# [4] = in vivo; cited from earlier work
# [5] = above 30 mg/m^2/d CPT-11, 5 day continuous infusion; cited from earlier work
# MOLT3 cells = settings: more potent than CPT-11; cited from earlier work
# [6] = system: topoisomerase I enzyme of P388 cells; settings: greater than CPT-11; cited from earlier work
# [7] = system: Topoisomerase I, purified from calf thymus; settings: cited from earlier work
# [8] = Kaneda et al.; cited from earlier work
# [9] = similar form; vs intravenous administration (U.S. Pat. No. 4,713,246); cited from earlier work
# Solubility in DMA or DMI = assay type: physicochemical; settings: organic solvent or mixture, in presence of pharmaceutically acceptable acid
# Protocol: Yet another embodiment of this invention for oral administration to a patient with cancer is 11,7-HECPT or 11,7-HMCPT dissolved in dimethylisosorbide (DMI) or dimethylacetamide (DMA) in the presence of a pharmaceutically acceptable acid. More specifically, approximately 10 mg of 11,7-HECPT or 11,7-HMCPT can be dissolved in each milliliter of DMA. However, only approximately 5.0 mg of 11,7-HECPT or 11,7-HMCPT can be dissolved in each milliliter of DMI.
# [10] = cited from earlier work; remark: listed apart in the source
# L1210 cells = settings: cited from earlier work
# topoisomerase I = settings: cited from earlier work
# [11] = more toxic than sodium camptothecin, mice; cited from earlier work
# [12] = compared with parent compound camptothecin; cited from earlier work
# [13] = dimethylacetamide, read-out: solubility in DMA
# [14] = dimethylisosorbide, read-out: solubility in DMI
structure (smiles),measurement,setting,value
"CC[C@@]1(O)C(=O)OCc2c1cc1n(c2=O)Cc2cc3ccc(O)cc3nc2-1 [11-HCPT, 11-hydroxy camptothecin]",antitumor activity,[1]; previously demonstrated,previously demonstrated antitumor activity
"CCc1c2c(nc3ccc(O)cc13)-c1cc3c(c(=O)n1C2)COC(=O)[C@]3(O)CC [SN38, 10-hydroxy-7-ethyl camptothecin]",anti-tumor activity compared to CPT-11 in vivo,P388 tumor,little anti-tumor activity compared to CPT-11
same,inhibition of Topoisomerase I,[2],inhibited
same,water solubility,[3],poorly soluble in water
same,overall fractional concentration of the lactone species,[4],fairly constant through a range of doses
same,CpMax of SN38 on increasing CPT-11 dose,[5],decrease in the CpMax of SN38
same,potency in generating single-strand DNA breaks relative to CPT-11,MOLT3 cells,approximately 1000 -fold
same,inhibitory activity against topoisomerase I relative to CPT-11,[6],3600 -fold
same,inhibition of Topoisomerase I,[7],inhibited
same,plasma concentration of SN38 in mice,[8],maintained longer after CPT-11 administration than after treatment with SN38
COc1cc([C@@H]2c3cc4c(cc3[C@@H](O[C@@H]3O[C@@H]5CO[C@@H](C)O[C@H]5[C@H](O)[C@H]3O)[C@H]3COC(=O)[C@H]23)OCO4)cc(OC)c1O [etoposide],bioavailability following oral administration,[9],substantially equivalent to that achieved by intravenous administration
"CC[C@@]1(O)C(=O)OCc2c1cc1n(c2=O)Cc2cc3cc4c(cc3nc2-1)OCO4 [10,11-methylene dioxycamptothecin]",water solubility,[3],relatively insoluble in water
same,activity in preclinical studies,[1]; preclinical studies,very active in preclinical studies
"CC[C@@]1(O)C(=O)OCc2c1cc1n(c2=O)Cc2c-1nc1cc(O)ccc1c2OC [11,7-HMCPT, 11-hydroxy-7-methoxy camptothecin]",solubility,Solubility in DMA or DMI; [13],~10 mg/mL
same,solubility,Solubility in DMA or DMI; [14],~5 mg/mL
same,water solubility,[3],poor water solubility
same,antitumor activity,[1]; previously demonstrated,previously demonstrated antitumor activity
"CCc1c2c(nc3cc(O)ccc13)-c1cc3c(c(=O)n1C2)COC(=O)[C@]3(O)CC [11,7-HECPT, 11-hydroxy-7-ethyl camptothecin]",solubility,Solubility in DMA or DMI; [13],~10 mg/mL
same,solubility,Solubility in DMA or DMI; [14],~5 mg/mL
same,antitumor activity,[1]; previously demonstrated,previously demonstrated antitumor activity
CC[C@@](O)(C(=O)O)c1cc2n(c(=O)c1CO)Cc1cc3ccccc3nc1-2 [sodium camptothecin],Toxicity,"[10]; sodium camptothecin, Phase II studies","unpredictable and severe myelosuppression, gastrointestinal toxicity, hemorrhagic cystitis, and alopecia"
same,antitumor activity,"[10]; sodium camptothecin, clinical trials",lack of significant anti-tumor activity
"CC[C@@]1(O)C(=O)OCc2c1cc1n(c2=O)Cc2cc3ccccc3nc2-1 [Camptothecin, camptothecin]",DNA strand breaks in L1210 cells,L1210 cells,an increase in unexplained protein-free breaks
same,inhibition of Topoisomerase I,[2],inhibited
same,stabilization of the cleavable complex,topoisomerase I; closed lactone vs non-lactone form,only the closed lactone form of camptothecin helps stabilize the cleavable complex
same,water solubility,[3],highly water insoluble
same,toxicity of lactone form relative to sodium camptothecin,[11],10 -fold
same,Toxicity,"[10]; camptothecin, Phase I trials, early 1970's",unpredictable myelosuppression and hemorrhagic cystitis
same,antitumor activity,"[10]; camptothecin, Phase I trials",some antitumor activity
same,inhibition of Topoisomerase I,[7],inhibited
CC[C@@]1(O)C(=O)OCc2c1cc1n(c2=O)Cc2cc3c(CN(C)C)c(O)ccc3nc2-1 [topotecan],Topo I inhibition,topoisomerase I,Topo I inhibitor
same,Toxicity,[12],less sporadic toxicities
same,antitumor activity,[1]; compared with parent compound camptothecin,retain the significant antitumor activity of the parent compound
